This note sets out measurements from ChEMBL document CHEMBL1201862, “PubChem BioAssay data set” (2004).

Each structure is given as a SMILES string. Active and inactive are the calls of the source.

Assay [1] has as its target Sphingosine 1-phosphate receptor 2 (Homo sapiens, UniProt O95136). The experiment in a line: Dose Response Cell Based Assay for Antagonists of the S1P2 Receptor. [Related pubchem assays: 856, 736 ]. Format: functional.
For the next assay, the system named is BJ. The experiment in a line: cytotoxicity toward BJ-TERT-LT-ST fibroblasts, dose response, cell-based, RAS-independent, luminescence (AID 1935).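 Also: BJ fibroblasts immortalized with TERT plus LT and ST oncogenes.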 Type of assay: functional. The settings on record: Homo sapiens.
The nature of assay [2]: cytotoxicity in HEK-293T cells, dose response, cytotoxicity control for TCR NF-kB inhibitor project, luminescence, T-cell screen hits (AID 489026).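 Also: cells exposed to compound about 14 hours before the viability readout.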 Format: functional, cell-based.
Another assay addresses T1, Protein RecA (Mycobacterium tuberculosis, UniProt P9WHJ3).
T1 sequence (P9WHJ3 whole entry): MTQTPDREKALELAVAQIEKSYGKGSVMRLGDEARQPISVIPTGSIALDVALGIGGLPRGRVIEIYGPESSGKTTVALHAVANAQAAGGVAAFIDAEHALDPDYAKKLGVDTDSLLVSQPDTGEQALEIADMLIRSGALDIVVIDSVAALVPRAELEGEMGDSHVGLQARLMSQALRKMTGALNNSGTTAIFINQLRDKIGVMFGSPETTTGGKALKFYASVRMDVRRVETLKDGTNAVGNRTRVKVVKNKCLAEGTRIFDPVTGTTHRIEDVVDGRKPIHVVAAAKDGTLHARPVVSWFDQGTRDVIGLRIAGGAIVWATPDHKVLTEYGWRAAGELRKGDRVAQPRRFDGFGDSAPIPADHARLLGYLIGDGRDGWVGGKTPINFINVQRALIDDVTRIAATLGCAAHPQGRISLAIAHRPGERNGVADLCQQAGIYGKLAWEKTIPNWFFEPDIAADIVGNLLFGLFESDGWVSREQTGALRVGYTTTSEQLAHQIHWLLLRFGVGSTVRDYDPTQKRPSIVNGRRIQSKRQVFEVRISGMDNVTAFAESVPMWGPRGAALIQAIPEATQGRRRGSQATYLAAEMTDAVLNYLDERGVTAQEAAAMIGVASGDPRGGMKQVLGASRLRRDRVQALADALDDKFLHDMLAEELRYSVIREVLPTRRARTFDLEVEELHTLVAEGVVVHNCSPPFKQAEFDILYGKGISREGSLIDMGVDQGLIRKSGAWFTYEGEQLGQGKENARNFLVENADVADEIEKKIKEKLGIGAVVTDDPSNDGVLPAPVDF
The experiment in a line: Fluorescence Cell-Free Homogeneous Dose Retest to Identify Inhibitors of RecA-Intein Splicing Activity. [Related pubchem assays (depositor defined):AID2097, AID2223, AID489010, AID492950]. Type of assay: functional.

The nature of assay [3]: NIH-3T3 fibroblast cytotoxicity, dose response, cytotoxicity control, cell-based, fluorescence, Alamar Blue, secondary assay (AID 2327).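 Also: NIH-3T3 mouse fibroblasts cultured with fluconazole at 8 µg/mL.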 Type of assay: functional. Background: The colour change of resazurin is a common sign of viable cells or microbes.
Assay [4] in a line: Luminescence Cell-Based Dose Retest to Confirm Inhibitors of Cancer Stem Cells. [Related pubchem assays (depositor defined):AID2717, AID2721]. Format: functional. Conditions: Homo sapiens.
The target of another assay is T2, Cytochrome P450 1A2 (Homo sapiens, UniProt P05177).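 Also: PubChem cytochrome P450 panel assay, CYP1A2 panel member.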
T2 sequence (P05177 whole entry): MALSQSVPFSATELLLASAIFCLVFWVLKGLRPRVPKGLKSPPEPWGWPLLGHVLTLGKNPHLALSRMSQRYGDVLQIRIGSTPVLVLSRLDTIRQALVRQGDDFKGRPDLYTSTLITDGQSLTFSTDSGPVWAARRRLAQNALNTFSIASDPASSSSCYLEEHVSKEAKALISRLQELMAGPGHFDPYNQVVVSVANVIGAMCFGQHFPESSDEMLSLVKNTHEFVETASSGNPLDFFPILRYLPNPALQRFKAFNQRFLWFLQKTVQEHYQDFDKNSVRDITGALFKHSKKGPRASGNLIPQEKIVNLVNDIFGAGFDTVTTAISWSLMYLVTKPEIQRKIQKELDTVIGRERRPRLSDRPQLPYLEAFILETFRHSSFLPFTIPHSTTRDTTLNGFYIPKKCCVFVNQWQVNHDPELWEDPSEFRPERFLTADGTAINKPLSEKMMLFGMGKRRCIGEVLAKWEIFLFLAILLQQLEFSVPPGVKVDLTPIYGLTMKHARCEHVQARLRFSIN

Assay [5] concerns the target Dual specificity protein kinase CLK2 (Homo sapiens, UniProt P49760). Format: functional.
Assay [6] deals with Serine/threonine-protein kinase D3 (Homo sapiens, UniProt O94806). Format: functional.
Assay [7] has as its target Serine/threonine-protein kinase Chk2 (Homo sapiens, UniProt O96017). Format: functional.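 Also: CHEK2 entry within a kinome-wide screening panel.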
The target of assay [8] is Calcium/calmodulin-dependent protein kinase type II subunit delta (Homo sapiens, UniProt Q13557). Type of assay: functional.
The target in assay [9] is Mitogen-activated protein kinase 9 (Homo sapiens, UniProt P45984). Type of assay: functional.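 Also: value from a kinome panel profiling assay, MAPK9 panel entry.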
For assay [10], the target named is Receptor-type tyrosine-protein kinase FLT3 (Homo sapiens, UniProt P36888). Format: functional.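 Also: FLT3 was tested as one member of a kinome-wide kinase panel.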
The target of assay [11] is Receptor tyrosine-protein kinase erbB-2 (Homo sapiens, UniProt P04626). The experiment in a line: Navigating the Kinome. Panel member name: ERBB2. Format: functional.
For assay [12], the target named is Dual specificity tyrosine-phosphorylation-regulated kinase 1B (Homo sapiens, UniProt Q9Y463). The experiment in a line: Navigating the Kinome. Panel member name: DYRK1B. Format: functional.
For assay [13], the target named is BDNF/NT-3 growth factors receptor (Homo sapiens, UniProt Q16620). Type of assay: functional.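 Also: NTRK2 measured as one member of a broad kinome-wide kinase profiling panel.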
In assay [14] the target is Serine/threonine-protein kinase BRSK1 (Homo sapiens, UniProt Q8TDC3). Format: functional.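 Also: measured within a kinome-wide kinase panel, with the target listed as KIAA1811.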
In assay [15] the target is Tyrosine-protein kinase FRK (Homo sapiens, UniProt P42685). Format: functional.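 Also: FRK tested as one member of a kinome panel.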
Assay [16] is described as follows: THP-1 cell cytotoxicity, dose response, cytotoxicity control for Vif-APOBEC3G degradation inhibitor project, THP-1 cells (AID 1117359). Format: functional. The settings on record: Human immunodeficiency virus 1, THP-1.
In assay [17] the target is Intestinal-type alkaline phosphatase (Homo sapiens, UniProt P09923). Description: human IAP activators, dose response, biochemical, luminescent, uHTS hits, set 2 (AID 488817).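 Also: potency of activators that raise enzyme activity.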 Type of assay: functional.

Sphingosine 1-phosphate receptor 2, sequence (O95136 whole entry): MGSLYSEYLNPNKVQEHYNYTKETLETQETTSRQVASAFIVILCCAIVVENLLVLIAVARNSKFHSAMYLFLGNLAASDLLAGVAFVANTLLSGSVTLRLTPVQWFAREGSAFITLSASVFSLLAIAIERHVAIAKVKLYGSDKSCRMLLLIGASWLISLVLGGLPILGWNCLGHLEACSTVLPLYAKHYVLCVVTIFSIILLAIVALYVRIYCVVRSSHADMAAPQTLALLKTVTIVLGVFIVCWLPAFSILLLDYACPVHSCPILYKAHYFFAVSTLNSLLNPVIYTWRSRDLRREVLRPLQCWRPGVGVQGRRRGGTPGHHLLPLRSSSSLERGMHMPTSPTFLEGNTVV
Dual specificity protein kinase CLK2, sequence (P49760 whole entry): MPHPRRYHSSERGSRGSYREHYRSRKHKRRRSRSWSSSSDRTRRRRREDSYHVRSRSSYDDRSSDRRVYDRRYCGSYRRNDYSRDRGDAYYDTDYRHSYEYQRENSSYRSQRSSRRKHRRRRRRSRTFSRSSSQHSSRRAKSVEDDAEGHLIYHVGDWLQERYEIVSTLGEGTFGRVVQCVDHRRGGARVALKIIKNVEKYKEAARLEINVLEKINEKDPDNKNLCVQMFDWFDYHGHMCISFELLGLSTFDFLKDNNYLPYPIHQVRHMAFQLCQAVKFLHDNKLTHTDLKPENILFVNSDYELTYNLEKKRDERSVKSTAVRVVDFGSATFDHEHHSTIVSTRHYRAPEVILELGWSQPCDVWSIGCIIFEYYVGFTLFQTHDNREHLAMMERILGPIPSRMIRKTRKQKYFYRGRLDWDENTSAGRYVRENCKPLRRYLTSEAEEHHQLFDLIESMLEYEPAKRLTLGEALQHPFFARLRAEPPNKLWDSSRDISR
Receptor-type tyrosine-protein kinase FLT3, sequence (P36888 whole entry): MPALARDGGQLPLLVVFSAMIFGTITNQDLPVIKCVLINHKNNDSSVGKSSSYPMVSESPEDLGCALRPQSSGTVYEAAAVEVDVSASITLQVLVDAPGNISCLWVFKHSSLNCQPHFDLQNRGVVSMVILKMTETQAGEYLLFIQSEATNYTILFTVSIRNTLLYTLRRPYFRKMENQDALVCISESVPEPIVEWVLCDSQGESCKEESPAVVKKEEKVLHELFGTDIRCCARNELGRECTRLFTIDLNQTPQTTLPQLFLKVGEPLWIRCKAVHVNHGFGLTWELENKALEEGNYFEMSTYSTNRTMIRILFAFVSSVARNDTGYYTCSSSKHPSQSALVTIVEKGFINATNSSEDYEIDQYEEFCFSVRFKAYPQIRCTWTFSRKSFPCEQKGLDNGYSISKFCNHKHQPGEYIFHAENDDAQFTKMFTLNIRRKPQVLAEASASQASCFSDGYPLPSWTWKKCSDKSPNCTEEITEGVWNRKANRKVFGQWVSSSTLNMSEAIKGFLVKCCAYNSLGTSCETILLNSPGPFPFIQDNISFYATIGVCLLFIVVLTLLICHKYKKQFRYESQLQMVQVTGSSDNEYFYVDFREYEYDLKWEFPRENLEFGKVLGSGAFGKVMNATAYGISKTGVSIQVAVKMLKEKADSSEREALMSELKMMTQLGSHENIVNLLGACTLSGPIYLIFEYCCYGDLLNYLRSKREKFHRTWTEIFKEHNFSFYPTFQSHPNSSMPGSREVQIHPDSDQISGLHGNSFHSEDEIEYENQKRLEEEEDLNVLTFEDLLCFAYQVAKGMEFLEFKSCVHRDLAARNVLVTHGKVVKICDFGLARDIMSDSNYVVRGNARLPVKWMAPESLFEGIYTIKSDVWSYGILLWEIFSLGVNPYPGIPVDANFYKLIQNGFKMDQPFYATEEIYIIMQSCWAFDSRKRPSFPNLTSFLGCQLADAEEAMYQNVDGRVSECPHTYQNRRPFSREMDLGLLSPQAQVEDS
BDNF/NT-3 growth factors receptor, sequence (Q16620 whole entry): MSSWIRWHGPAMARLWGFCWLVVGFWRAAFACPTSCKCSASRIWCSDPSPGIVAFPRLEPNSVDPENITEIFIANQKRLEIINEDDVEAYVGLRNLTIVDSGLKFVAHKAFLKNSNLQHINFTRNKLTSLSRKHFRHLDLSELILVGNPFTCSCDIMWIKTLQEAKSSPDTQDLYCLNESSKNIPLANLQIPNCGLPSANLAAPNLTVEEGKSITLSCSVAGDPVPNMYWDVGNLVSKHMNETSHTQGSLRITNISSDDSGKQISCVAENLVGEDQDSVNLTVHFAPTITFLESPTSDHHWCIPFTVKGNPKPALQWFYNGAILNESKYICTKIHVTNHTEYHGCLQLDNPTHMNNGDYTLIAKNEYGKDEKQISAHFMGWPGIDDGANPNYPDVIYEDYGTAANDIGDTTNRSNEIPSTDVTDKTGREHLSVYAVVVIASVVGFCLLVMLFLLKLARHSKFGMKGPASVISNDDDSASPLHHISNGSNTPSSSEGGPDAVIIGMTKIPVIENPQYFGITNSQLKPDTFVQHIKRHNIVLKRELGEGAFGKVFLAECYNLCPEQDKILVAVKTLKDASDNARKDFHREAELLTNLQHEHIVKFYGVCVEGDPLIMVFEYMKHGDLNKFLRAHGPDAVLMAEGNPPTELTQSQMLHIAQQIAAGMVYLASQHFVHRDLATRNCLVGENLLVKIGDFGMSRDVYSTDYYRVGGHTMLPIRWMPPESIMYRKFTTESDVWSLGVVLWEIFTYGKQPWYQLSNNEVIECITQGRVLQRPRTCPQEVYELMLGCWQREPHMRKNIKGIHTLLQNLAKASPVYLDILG
Calcium/calmodulin-dependent protein kinase type II subunit delta, sequence (Q13557 whole entry): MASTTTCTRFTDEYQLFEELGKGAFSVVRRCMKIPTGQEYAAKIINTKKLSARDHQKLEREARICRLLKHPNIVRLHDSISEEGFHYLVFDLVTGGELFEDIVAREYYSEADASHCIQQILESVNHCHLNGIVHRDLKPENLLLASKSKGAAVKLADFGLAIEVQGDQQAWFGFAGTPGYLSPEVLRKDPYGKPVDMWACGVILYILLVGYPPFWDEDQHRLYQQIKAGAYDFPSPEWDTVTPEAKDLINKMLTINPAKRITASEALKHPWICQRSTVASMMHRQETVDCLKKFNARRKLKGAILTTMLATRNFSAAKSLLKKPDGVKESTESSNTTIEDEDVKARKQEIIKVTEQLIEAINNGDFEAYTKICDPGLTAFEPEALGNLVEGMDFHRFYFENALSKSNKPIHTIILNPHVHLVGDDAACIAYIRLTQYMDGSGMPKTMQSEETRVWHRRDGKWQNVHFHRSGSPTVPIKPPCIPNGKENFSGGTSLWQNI
Receptor tyrosine-protein kinase erbB-2, sequence (P04626 whole entry): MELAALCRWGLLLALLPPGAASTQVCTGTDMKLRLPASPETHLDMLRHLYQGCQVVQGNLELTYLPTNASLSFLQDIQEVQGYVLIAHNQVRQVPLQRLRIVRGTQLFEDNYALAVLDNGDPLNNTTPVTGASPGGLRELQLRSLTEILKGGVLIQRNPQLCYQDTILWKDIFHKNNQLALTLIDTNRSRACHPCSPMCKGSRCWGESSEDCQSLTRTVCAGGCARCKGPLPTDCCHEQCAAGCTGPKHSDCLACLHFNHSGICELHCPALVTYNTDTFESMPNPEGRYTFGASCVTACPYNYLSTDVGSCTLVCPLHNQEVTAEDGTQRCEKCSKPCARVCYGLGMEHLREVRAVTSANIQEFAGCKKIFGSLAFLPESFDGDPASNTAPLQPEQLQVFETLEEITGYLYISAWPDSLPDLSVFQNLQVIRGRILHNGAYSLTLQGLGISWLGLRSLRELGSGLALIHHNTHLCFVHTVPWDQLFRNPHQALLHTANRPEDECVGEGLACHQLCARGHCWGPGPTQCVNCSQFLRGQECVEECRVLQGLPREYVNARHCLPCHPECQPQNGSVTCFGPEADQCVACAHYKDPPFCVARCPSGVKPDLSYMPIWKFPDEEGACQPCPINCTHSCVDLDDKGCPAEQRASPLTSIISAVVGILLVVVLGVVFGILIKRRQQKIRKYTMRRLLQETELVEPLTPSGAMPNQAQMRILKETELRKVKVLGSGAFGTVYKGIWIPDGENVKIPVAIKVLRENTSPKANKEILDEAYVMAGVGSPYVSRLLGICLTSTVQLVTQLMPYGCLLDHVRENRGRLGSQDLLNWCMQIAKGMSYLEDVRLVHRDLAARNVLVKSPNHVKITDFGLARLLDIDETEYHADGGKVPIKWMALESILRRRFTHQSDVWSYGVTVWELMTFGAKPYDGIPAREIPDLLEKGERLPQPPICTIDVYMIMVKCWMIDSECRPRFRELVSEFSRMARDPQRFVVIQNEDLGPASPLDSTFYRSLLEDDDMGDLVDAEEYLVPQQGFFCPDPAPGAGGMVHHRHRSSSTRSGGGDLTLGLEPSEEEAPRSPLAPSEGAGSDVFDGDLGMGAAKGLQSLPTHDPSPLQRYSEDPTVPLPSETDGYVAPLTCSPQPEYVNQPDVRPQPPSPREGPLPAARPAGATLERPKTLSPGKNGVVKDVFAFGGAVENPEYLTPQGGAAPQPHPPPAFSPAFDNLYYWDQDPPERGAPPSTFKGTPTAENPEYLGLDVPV
Mitogen-activated protein kinase 9, sequence (P45984 whole entry): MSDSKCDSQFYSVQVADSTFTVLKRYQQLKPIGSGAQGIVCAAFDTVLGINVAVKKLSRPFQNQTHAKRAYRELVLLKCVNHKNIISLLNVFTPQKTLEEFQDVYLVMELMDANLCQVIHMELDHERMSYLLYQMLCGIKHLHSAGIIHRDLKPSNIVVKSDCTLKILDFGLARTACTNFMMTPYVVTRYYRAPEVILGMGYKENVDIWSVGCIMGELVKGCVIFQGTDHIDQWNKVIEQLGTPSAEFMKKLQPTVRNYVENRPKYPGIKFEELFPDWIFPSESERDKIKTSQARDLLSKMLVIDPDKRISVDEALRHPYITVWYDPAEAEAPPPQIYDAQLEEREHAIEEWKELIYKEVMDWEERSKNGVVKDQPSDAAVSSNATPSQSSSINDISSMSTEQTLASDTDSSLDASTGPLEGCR

Take `COC(=O)C1CN(C#N)N(c2ccc(Cl)cc2)C12c1ccccc1-c1ccccc12` (stereo not given): the half-inhibitory concentration (IC50) in assay [1] is 2.79 µM (active); in assay [2], 56.6 µM (inactive). Also, the values for the 50% effective concentration (EC50) in the assay with BJ and at Protein RecA were 2.49 µM (inconclusive) and 7 µM (active), respectively.

As for `CN(C)S(=O)(=O)Oc1cccc(C(=O)Nc2ccc(Cl)c(Cl)c2)c1`, in assay [3], the EC50 was > 150 µM (inactive). For the same compound, the values for the half-maximal activity concentration (AC50) (in [4]; on Cytochrome P450 1A2) were 8.64 µM (active) and 2 µM (inconclusive), respectively.

In the case of `Nc1noc2cccc(-c3cccc(O)c3)c12`, the Ki in assay [5] is > 20 µM (inactive); in [6], > 10 µM (inactive); in assay [7], > 1.58 µM (inactive); in assay [8] it was 2.51 µM (active); in assay [9], > 3.98 µM (inactive); in assay [10], 10 µM (active). Further, the Ki was > 1.58 µM (inactive) in [11]; 3.16 µM (active) in assay [12]; > 20 µM (inactive) in assay [13]; 7.94 µM (active) in [14]; 0.0398 µM (active) in assay [15].

Regarding `O=C1NC(=S)S/C1=C\C=C\c1ccc([N+](=O)[O-])o1`, the CC50 in assay [16] was 4.04 µM (active).

On to `O=C(NN1C(=O)CSC1=S)C(=O)NN1C(=O)CSC1=S`, for which the EC50 in assay [17] is 12.4 µM (active).

Usually IC50 stands for the point on the concentration scale where inhibition reaches its midpoint. What is called EC50 is the concentration at which the effect is half-maximal. In general, AC50 refers to the midpoint of the concentration-response curve, whichever way the signal moves. The Ki is a dissociation constant, usually derived from enzyme kinetics or from competition with a known ligand. A word on the CC50: it is the concentration giving 50% cytotoxicity.
